Measurements reported in patent publication US20220009894A1, “1,2,3,4-TETRAHYDROQUINOXALINE DERIVATIVE, PREPARATION METHOD THEREFOR AND APPLICATION THEREOF” (Abbisko Therapeutics Co., Ltd., priority 2019, published 2022).

Experiments:
RORγt-LBD = biological target: T1, RORγt-LBD (Homo sapiens, UniProt P51449); assay: Time-resolved fluorescence resonance energy-transfer assay (TR-FRET), co-activator peptide recruitment; type: biochemical; design: TR-FRET Biochemical Amax: unit not given here; details: for EC50: His-RORγt-LBD 30 nM, SRC peptide 500 nM, agonistic activity, averages of one or more measurements, read-out: TR-FRET Biochemical EC50/; for TR-FRET Biochemical Amax: upper activation limit, His-RORγt-LBD, SRC peptide
T1 sequence (P51449 269-508 limits assumed): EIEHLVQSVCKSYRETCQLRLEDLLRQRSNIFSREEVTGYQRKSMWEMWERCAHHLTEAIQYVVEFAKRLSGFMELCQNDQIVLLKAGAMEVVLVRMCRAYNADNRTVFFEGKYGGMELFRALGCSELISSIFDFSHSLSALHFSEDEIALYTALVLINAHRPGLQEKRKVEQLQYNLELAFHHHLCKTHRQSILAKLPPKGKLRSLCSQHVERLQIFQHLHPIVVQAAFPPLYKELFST
Excerpt: I. Time-Resolved Fluorescence Resonance Energy-Transfer Assay (TR-FRET)
This experiment was a screening experiment for RORγt nuclear receptor agonists based on TR-FRET technology. When His-labeled RORγt-LBD receptor binds to receptor agonists, it may increase the recruitment of biotin-labeled co-activator peptides. Europium-His-RORγt-LBD is indirectly labeled by donor (Eu) by binding to Eu-anti-His antibody. Once Eu is activated by an energy source (such as flashlight or laser), the energy will be transferred to the co-activator indirectly labeled by allophycocyanin by binding of allophycocyanin-streptavidin and biotin-labeled co-activator. • 1. 10× buffer (500 mM Tris-HCl, 500 mM KCl, and 10 mM Na-EDTA) was prepared, pH value was adjusted to 7.0. The buffer was stored at 4° C. for later use and was restored to normal temperature before experiment; • 2. The 10× buffer was diluted to 1× with pure water. Final concentration of 0.01% Triton X-100 and 1 mM DTT (dithiothreitol) were added to prepare the assay buffer; • 3. DMSO was used to prepare 1000× compound stock solution. The compound solution was serial-diluted in 5-fold for 7 concentrations from the top concentration of 1000 nM/10000 nM. Then the 10× compound solution was prepared with assay buffer. An amount of 2 μL was aliquoted into the 20 μL system; • 4. 5×RORγt-LBD protein solution was unfreezed, and a solution of 5× concentration was prepared with assay buffer to obtain a final concentration of 30 nM. The whole operation was carried out on ice; • 5. 5×SRC peptide was unfreezed, and a solution of 5× concentration was prepared with assay buffer to obtain a final concentration of 500 nM. The whole operation was carried out on ice; • 6. 4 μL/well of RORγt-LBD receptor was added into the testing wells of 384-well plate, and the same amount of assay buffer was added to the control wells of non-RORγt-LBD group; • 7. 2 μL of compound was added into each well of 384-well plate; • 8. 4 μL of SRC peptide was added into each well of 384-well plate; • 9. 2× Eu-anti-6× His/APC-Streptavidin was diluted with Lance detection buffer to a final concentration of 0.25 nM and 5 nM, respectively, and then 10 μL of 2× Eu-anti-6× His/APC-Streptavidin was added into each well of 384-well plate; • 10. The mixed solution was incubated at 4° C. overnight; • 11. On the morning of the next day, the 384-well plate was incubated at room temperature for 1 hr. Then the corresponding signal values were read with PerkinElmer EnVision at a wavelength of 665/615 […]. The agonistic activity of the corresponding compound was calculated with Graphpad Prism 7.0 software.

RORγt = biological target: T2, RORγt (Homo sapiens, UniProt P51449); assay: RORγt cellular reporter gene detection assay; type: cell-based; details: 24 hrs; for EC50: HEK 293 cells co-transfected with pFN26A-RORγt-LBD and pG14.35, in presence of antagonist Ursolic acid, top concentration 50 μM; for Cellular Reporter Assay Amax: upper activation limit, HEK 293 cells, in presence of antagonist Ursolic acid;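 for Cellular Reporter Assay Amax: Ursolic Acid added as 5 µL of 20 µM medium per well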
T2 construct: The plasmid of pFN26A-RORγt-LBD and pG14.35 (Promega, Cat. No. E1370) were co-transfected into HEK 293 cells; expressed in transfected cells; host or cells: HEK 293 cells (Cat. No. GNHu18)
T2 sequence (P51449 269-508 limits assumed): T1 sequence (P51449 269-508 limits assumed)
Method: II. RORγt Cellular Reporter Gene Detection Assay
In this experiment, RORγt Reporter Gene Detection method was used to evaluate the activation and specificity of compounds to RORγt in cells. The plasmid of pFN26A-RORγt-LBD and pG14.35 (Promega, Cat. No. E1370) were co-transfected into HEK 293 cells (Cat. No. GNHu18). The efficacy of compounds was evaluated with the presence of an antagonist Ursolic acid (Selleck, Cat. No. S2370-100 mg). The specific experimental process was as follow: • 1. The plasmids-co-transfected cells were inoculated into a 96-well plate (Corning, Cat. No 3610) in a fresh DMEM medium (Gibco, cat. No. 1773536) containing 10% fetal bovine serum (Gibco, Cat. No. 10099-141) at 30000 cells/40 μL/well; • 2. 5 μL of medium containing 20 μM Ursolic acid was added thereto; • 3. The dose effect was evaluated by a 4-fold dilution of the test compound starting from 50 μM; • 4. 5 μL of medium containing a compound concentration of 10-fold of its final test concentration was added; • 5. After the cells were incubated at 37° C. and 5% CO2 for 24 hrs, 50 μL of detection reagent was added to detect firefly fluorescence using PerkinElmerEnVision, and 50 μL of the second detection reagent was added to detect sea kidney fluorescence; • 6. A four-parameter curve simulated in GraphPad Prism was used to determine the concentration for 50% activation (EC50) and the upper activation limit (Amax) for each compound.

EC50 (RORγt-LBD) [nM]	TR-FRET Biochemical Amax (RORγt-LBD)	EC50 (RORγt) [nM]	Cellular Reporter Assay Amax (RORγt)	SMILES
40.7	1.23	290	3.7	C/C(=C\c1ccc2c(c1)N(S(=O)(=O)c1cccc(C(F)(F)F)c1)C[C@@H]1CN(C[C@H](O)CO)CCN21)c1c(F)cccc1Cl [Example 38, (S)-3-((S)-8-((E)-2-(2-chloro-6-fluorophenyl)prop-1-en-1-yl)-6-((3-(trifluoromethyl)phe-nyl)sulfonyl)-1,2,4,4a,5,6-hexa-hydro-3H-pyrazino[1,2-a]qui-noxalin-3-yl)propane-1,2-diol]
31.5	0.41	295	1.1	CN1c2ccc(C3CC(C)(C)OC(C)(C)C3)cc2N(S(=O)(=O)c2cccc(C(F)(F)F)c2)C[C@@H]1CCC(=O)O [Example 119, (S)-3-(1-methyl-6-(2,2,6,6-tetramethyltetrahydro-2H-pyran-4-yl)-4-((3-(trifluoromethyl)phenyl)sulfonyl)-1,2,3,4-tetrahydroquinoxalin-2-yl)propanoic acid]
16.1	1.54	528	4.2	CN1c2ccc(/C=C/c3c(Cl)cccc3C(F)(F)F)cc2N(S(=O)(=O)c2cccc(C(F)(F)F)c2)C[C@@H]1CCC(=O)O [Example 6, (S,E)-3-(6-(2-chloro-6-(tri-fluoromethyl)styryl)-1-meth-yl-4-((3-(trifluoromethyl)phenyl)sulfonyl)-1,2,3,4-tetrahydroquinoxalin-2-yl) propanoic acid]
148	–	627	–	O=C(O)[C@@H]1CCN2c3ccc(-c4cc(F)cc(OC(F)F)c4)cc3N(S(=O)(=O)c3cccc(C(F)(F)F)c3)C[C@@H]2C1 [Example 117, (6aS,8R)-3-(3-(difluoromethoxy)-5-fluorophenyl)-5-((3-(trifluoro-methyl)phenyl)sulfonyl)-6,6a,7,8,9,10-hexahydro-5H-pyri-do[1,2-a]quinoxaline-8-car-boxylic acid]
8.4	0.89	391	2.8	NC(=S)N1CCN2c3ccc(/C=C/c4c(Cl)cccc4C(F)(F)F)cc3N(S(=O)(=O)c3cccc(C(F)(F)F)c3)C[C@@H]2C1 [Example 65, (S,E)-8-(2-chloro-6-(trifluoro-methyl)styryl)-6-((3-(trifluoro-methyl)phenyl)sulfonyl)-1,2,4,4a,5,6-hexahydro-3H-pyrazino [1,2-a]quinoxaline-3-carbothio-amide]
12.1	0.98	378	2.4	C/C(=C\c1ccc2c(c1)N(S(=O)(=O)c1cccc(C(F)(F)F)c1)C[C@@H]1C[C@](C)(OCCC(=O)O)CCN21)c1c(F)cccc1Cl [Example 121]
72.5	0.48	704	4.1	O=C(O)COC1CCN2c3ccc(-c4cc(F)cc(OC(F)F)c4)cc3N(S(=O)(=O)c3cccc(C(F)(F)F)c3)C[C@@H]2C1 (stereo partly drawn) [Example 106, 2-(((6aS)-3-(3-(difluoromethoxy)-5-fluorophenyl)-5-((3-(trifluoromethyl)phenyl)sulfonyl)-6,6a,7,8,9,10-hexahydro-5H-pyrido[1,2-a]quinoxalin-8-yl)oxy)acetic acid]
0.84	1.28	123	1.4	CC1(C)C=C(c2ccc3c(c2)N(S(=O)(=O)c2cccc(C(F)(F)F)c2)C[C@@H]2CN(C[C@H](O)CO)CCN32)CC(C)(C)O1 [Example 42, (S)-3-((S)-8-(2,2,6,6-tetrameth-yl-3,6-dihydro-2H-pyran-4-yl)-6-((3-(trifluoromethyl)phenyl)sulfonyl)-1,2,4,4a,5,6-hexa-hydro-3H-pyrazino[1,2-a]qui-noxalin-3-yl)propane-1,2-diol]
13.3	1.22	90.4	5.5	CS(=O)(=O)N1CCN2c3ccc(-c4cc(F)cc(OC(F)F)c4)cc3N(S(=O)(=O)c3cccc(C(F)(F)F)c3)C[C@@H]2C1 [Example 8, (S)-8-(3-(difluoromethoxy)-5-fluorophenyl)-3-(methylsulfonyl)-6-((3-(trifluoromethyl)phenyl)sulfonyl)-2,3,4,4a,5,6-hexahydro-1H-pyrazino[1,2-a]quinoxaline]
34.1	0.47	3760	4.1	O=C(O)CN1CCN2c3ccc(-c4cc(F)cc(OC(F)F)c4)cc3N(S(=O)(=O)c3cc(C(F)(F)F)cnc3OCCO)C[C@@H]2C1 [Example 91, (S)-2-(8-(3-(difluoromethoxy)-5-fluorophenyl)-6-((2-(2-hydroxyethoxy)-5-(trifluoromethyl)pyridin-3-yl)sulfonyl)-1,2,4,4a,5,6-hexahydro-3H-pyrazino[1,2-a]quinoxalin-3-yl)acetic acid]
29.1	1.20	1740	4.4	C/C(=C\c1ccc2c(c1)N(S(=O)(=O)c1cccc(C(F)(F)F)c1)C[C@H](CCC(=O)O)N2C)c1c(F)cccc1Cl [Example 3, (S,E)-3-(6-(2-(2-chloro-6-fluorophenyl)prop-1-en-1-yl)-1-methyl-4-((3-(trifluoromethyl)phenyl)sulfonyl)-1,2,3,4-tetrahydroquinoxalin-2-yl)propanoic acid]
55.7	0.87	1190	3.7	C/C(=C\c1ccc2c(c1)N(S(=O)(=O)c1cccc(C(F)(F)F)c1)C[C@@H]1CN(C(CO)(CO)C(N)=O)CCN21)c1c(F)cccc1Cl [Example 75, (S,E)-2-(8-(2-(2-chloro-6-fluorophenyl)prop-1-en-1-yl)-6-((3-(trifluoromethyl)phenyl)sulfonyl)-1,2,4,4a,5,6-hexahydro-3H-pyrazino[1,2-a]quinoxalin-3-yl)-3-hydroxy-2-(hydroxymethyl)propanamide]
